Reference: ChEMBL document CHEMBL1128323, “Antifungal agents. 9. 3-Aryl-4-[alpha-(1H-imidazol-1-yl)arylmethyl]pyrroles: a new class of potent anti-Candida agents” (1995)
≈ marks a conversion by molar mass, not a printed value.

Key:
Assay type in all cases: functional
[1] = test system: Candida albicans; assay: 50% inhibitory activity against Candida albicans (40 clinical isolates) determined at pH-5.8
[2] = test system: Candida; assay: 50% inhibitory activity against the Candida. species (40 clinical isolates) was determined at pH-7.2
[3] = test system: Candida; assay: Inhibitory activity against Candida. species. (40 clinical isolates), determined at pH-5.8
[4] = test system: Candida; assay: Percent resistance against all Candida. species (40 clinical isolates) at 256 micro g/mL (pH=7.2), activity is expressed as R%.
[5] = test system: Candida; assay: Inhibitory activity against Candida. species. (40 clinical isolates), determined at pH-7.2
[6] = test system: Candida albicans; assay: Inhibitory activity against the Candida albicans (40 clinical isolates), determined at pH-7.2
[7] = test system: Candida albicans; assay: Resistance against Candida. albicans (40 clinical isolates) at 256 ug/mL (pH=7.2), activity is expressed as R%.
[8] = test system: Candida albicans; assay: Inhibitory activity against the Candida albicans (40 clinical isolates), determined at pH-5.8
[9] = test system: Candida albicans; assay: 50% inhibitory activity against Candida albicans (40 clinical isolates) determined at pH-7.2; details: Candida albicans; read-out: MIC50
[10] = test system: Candida albicans; assay: Inhibitory activity against Candida albicans (40 clinical isolates), determined at pH-5.8
[11] = test system: Candida; assay: 90% inhibitory activity against Candida. species (40 clinical isolates) determined at pH-7.2
[12] = test system: Candida albicans; assay: Percent resistance against Candida albicans (40 clinical isolates) at 256 micro g/mL (pH=5.8), activity is expressed as R%.
[13] = test system: Candida; assay: Resistance against all Candida. species (40 clinical isolates) at 256 micro g/mL (pH=5.8). Activity is expressed as R%.
[14] = test system: Candida albicans; assay: Inhibitory activity against Candida albicans (40 clinical isolates), determined at pH-7.2
[15] = test system: Candida; assay: Inhibitory activity against Candida. species (40 clinical isolates), determined at pH-5.8

Row | Structure (SMILES) | MIC50 [1] [µg/mL] | MIC50 [2] [µg/mL] | MIC [3] [µg/mL] | R [4] [%] | MIC [5] [µg/mL] | MIC90 [6] [µg/mL] | R [7] [%] | MIC90 [8] [µg/mL] | MIC50 [9] [µg/mL] | MIC [10] [µg/mL] | MIC90 [11] [µg/mL] | R [12] [%] | R [13] [%] | MIC [14] [µg/mL] | MIC50 [15] [µg/mL] | MIC90 [15] [µg/mL]
1 | O=[N+]([O-])c1ccc(C(c2c[nH]cc2-c2ccc(Cl)cc2Cl)n2ccnc2)cc1 (stereo not drawn) | 16 (≈ 38.7 µM) | 256 (≈ 619 µM) | 30.2 (≈ 73.1 µM) | 30 | > 207 | 64 (≈ 155 µM) | 0 | 64 (≈ 155 µM) | 32 (≈ 77.4 µM) | 22.9 (≈ 55.4 µM) | > 256 | 0 | 0 | 38.5 (≈ 93.2 µM) | 32 (≈ 77.4 µM) | 32 (≈ 77.4 µM)
2 | Cc1ccc(C(c2c[nH]cc2-c2ccccc2Cl)n2ccnc2)cc1 (stereo not drawn) | 32 (≈ 92 µM) | 32 (≈ 92 µM) | 41.7 (≈ 120 µM) | 0 | 30.1 (≈ 86.5 µM) | 64 (≈ 184 µM) | 0 | 64 (≈ 184 µM) | 4 (≈ 11.5 µM) | 35.4 (≈ 102 µM) | 32 (≈ 92 µM) | 0 | 0 | 13.2 (≈ 37.9 µM) | 32 (≈ 92 µM) | 64 (≈ 184 µM)
3 | Clc1ccccc1-c1c[nH]cc1C(c1ccc(-n2cccc2)cc1)n1ccnc1 (stereo not drawn) | 8 (≈ 20.1 µM) | 16 (≈ 40.1 µM) | 30.2 (≈ 75.7 µM) | 0 | 24.1 (≈ 60.4 µM) | 64 (≈ 160 µM) | 0 | 16 (≈ 40.1 µM) | 8 (≈ 20.1 µM) | 20.5 (≈ 51.4 µM) | 64 (≈ 160 µM) | 0 | 0 | 25.3 (≈ 63.4 µM) | 32 (≈ 80.2 µM) | 32 (≈ 80.2 µM)
4 | Clc1ccc(-c2c[nH]cc2C(c2ccc(Cl)c(Cl)c2)n2ccnc2)cc1Cl (stereo not drawn) | 8 (≈ 18.3 µM) | > 256 | > 328 | 50 | > 309 | 32 (≈ 73.2 µM) | 0 | 32 (≈ 73.2 µM) | 8 (≈ 18.3 µM) | 9.2 (≈ 21 µM) | > 256 | 0 | 50 | 14 (≈ 31.9 µM) | 256 (≈ 586 µM) | > 256
5 | Clc1ccc(C(c2c[nH]cc2-c2ccc(Cl)c(Cl)c2)n2ccnc2)c(Cl)c1 (stereo not drawn) | 2 (≈ 4.58 µM) | 32 (≈ 73.2 µM) | 27.7 (≈ 63.4 µM) | 0 | 38.2 (≈ 87.4 µM) | 16 (≈ 36.6 µM) | 0 | 16 (≈ 36.6 µM) | 2 (≈ 4.58 µM) | 5.9 (≈ 13.5 µM) | 32 (≈ 73.2 µM) | 0 | 0 | 5.8 (≈ 13.3 µM) | 32 (≈ 73.2 µM) | 32 (≈ 73.2 µM)
6 | Clc1ccc(-c2c[nH]cc2C(c2ccc(Cl)cc2Cl)n2ccnc2)c(Cl)c1 (stereo not drawn) | 2 (≈ 4.58 µM) | 256 (≈ 586 µM) | 23.4 (≈ 53.5 µM) | 0 | 101 (≈ 231 µM) | 16 (≈ 36.6 µM) | 0 | 16 (≈ 36.6 µM) | 8 (≈ 18.3 µM) | 7.4 (≈ 16.9 µM) | 256 (≈ 586 µM) | 0 | 0 | 20.6 (≈ 47.1 µM) | 32 (≈ 73.2 µM) | 32 (≈ 73.2 µM)
7 | Fc1ccc(C(c2c[nH]cc2-c2ccc(Cl)cc2)n2ccnc2)cc1 (stereo not drawn) | 32 (≈ 91 µM) | 32 (≈ 91 µM) | 26.6 (≈ 75.6 µM) | 0 | 31.8 (≈ 90.4 µM) | 32 (≈ 91 µM) | 0 | 64 (≈ 182 µM) | 16 (≈ 45.5 µM) | 15.4 (≈ 43.8 µM) | 64 (≈ 182 µM) | 0 | 0 | 19.2 (≈ 54.6 µM) | 32 (≈ 91 µM) | 32 (≈ 91 µM)
8 | Cc1ccc(C(c2c[nH]cc2-c2ccc(Cl)cc2)n2ccnc2)cc1 (stereo not drawn) | 16 (≈ 46 µM) | 16 (≈ 46 µM) | 20.4 (≈ 58.6 µM) | 0 | 23.1 (≈ 66.4 µM) | 32 (≈ 92 µM) | 0 | 32 (≈ 92 µM) | 16 (≈ 46 µM) | 12.3 (≈ 35.4 µM) | 32 (≈ 92 µM) | 0 | 0 | 18.9 (≈ 54.3 µM) | 16 (≈ 46 µM) | 32 (≈ 92 µM)
9 | O=[N+]([O-])c1ccc(C(c2c[nH]cc2-c2ccccc2Cl)n2ccnc2)cc1 (stereo not drawn) | 32 (≈ 84.5 µM) | 64 (≈ 169 µM) | 48.4 (≈ 128 µM) | 30 | > 200 | 256 (≈ 676 µM) | 15 | 64 (≈ 169 µM) | 32 (≈ 84.5 µM) | > 50.7 | > 256 | 0 | 0 | > 91.6 | 64 (≈ 169 µM) | 64 (≈ 169 µM)
10 | Fc1ccc(C(c2c[nH]cc2-c2ccc(Cl)cc2Cl)n2ccnc2)cc1 (stereo not drawn) | 2 (≈ 5.18 µM) | 16 (≈ 41.4 µM) | 21.5 (≈ 55.7 µM) | 0 | 20.9 (≈ 54.1 µM) | 32 (≈ 82.8 µM) | 0 | 32 (≈ 82.8 µM) | 8 (≈ 20.7 µM) | 7.8 (≈ 20.2 µM) | 32 (≈ 82.8 µM) | 0 | 0 | 10.4 (≈ 26.9 µM) | 16 (≈ 41.4 µM) | 32 (≈ 82.8 µM)
11 | Clc1ccc(-c2c[nH]cc2C(c2ccc(Cl)c(Cl)c2)n2ccnc2)cc1 (stereo not drawn) | 4 (≈ 9.93 µM) | 64 (≈ 159 µM) | 32.2 (≈ 80 µM) | 10 | 91.3 (≈ 227 µM) | 64 (≈ 159 µM) | 0 | 64 (≈ 159 µM) | 2 (≈ 4.97 µM) | 14.4 (≈ 35.8 µM) | 64 (≈ 159 µM) | 0 | 0 | 19.3 (≈ 48 µM) | 32 (≈ 79.5 µM) | 64 (≈ 159 µM)
12 | Clc1ccc(C(c2c[nH]cc2-c2ccc(Cl)c(Cl)c2)n2ccnc2)cc1 (stereo not drawn) | 4 (≈ 9.93 µM) | 32 (≈ 79.5 µM) | 30.2 (≈ 75 µM) | 0 | 39.2 (≈ 97.3 µM) | 16 (≈ 39.7 µM) | 0 | 16 (≈ 39.7 µM) | 4 (≈ 9.93 µM) | 8.9 (≈ 22.1 µM) | 64 (≈ 159 µM) | 0 | 0 | 9.6 (≈ 23.8 µM) | 32 (≈ 79.5 µM) | 64 (≈ 159 µM)
13 | Clc1ccc(COC(Cn2ccnc2)c2ccc(Cl)cc2Cl)c(Cl)c1 (stereo not drawn) [MICONAZOLE] | 0.5 (≈ 1.2 µM) | 16 (≈ 38.4 µM) | 13 (≈ 31.2 µM) | 0 | 13 (≈ 31.2 µM) | 32 (≈ 76.9 µM) | 0 | 32 (≈ 76.9 µM) | 2 (≈ 4.81 µM) | 5.9 (≈ 14.2 µM) | 32 (≈ 76.9 µM) | 0 | 0 | 6.1 (≈ 14.7 µM) | 2 (≈ 4.81 µM) | 32 (≈ 76.9 µM)
